Experimental data taken from patent US20250059474A1, “Liquid formulation comprising an alcohol and highly water soluble manganese complex salt catalyst, bleaching formulation and cleaning agent comprising the same” (Catexel GmbH, priority 2023, published 2025).
Where two headings read alike, the source gives them in different places. Blank lines part the entries; values can stand above or below the compound they belong to.

How the values were obtained:
[1] = Stability of PVOH pouches containing solvents; settings: 26 weeks at 40° C. then 26 weeks at room temperature
Method: In small pouches made from a standard PVOH film, different solvents were added (1 mL), the pouch was sealed using a hot plate (150° C.). The pouches containing the solvent were stored for 26 weeks at 40° C. and then for 26 weeks at room temperature.

[2] = Dissolution and storage stability of MnTACN salts in various solvents; assay type: physicochemical
Method: Dissolution of MnTACN-PF6 catalyst in various solvents was performed. First a screening was done in which solvents the PF6 salt of the MnTACN catalyst could be dissolved.

[3] = Solubility in water at 20° C.; assay type: physicochemical
[4] = Dishwash machine tea-stain cleaning experiments; settings: 0 = no cleaning, 100 = complete removal
Method: A standard dishwash machine tablet was prepared using the same ingredients as disclosed in WO2022/058039 (Weylchem Performance Products GmbH). Together with each tablet (14 g) on top, either no catalyst was added (blank), 100 mg of Weylclean® FDO X (uncoated granules containing 2 wt-% of MnTACN-PF6 (comparative)) was added, or 82 mg of dipropylene glycol containing 1.64 mg of dissolved MnTACN-SO4 (Exp low MnTACN-SO4) or 100 mg of dipropylene glycol containing 2 mg of dissolved MnTACN-SO4 (Exp high MnTACN-SO4).

[5] = Dowanol PM with 3 wt % citric acid
[6] = dipropylene glycol with 3 wt % of nitric acid
[7] = dipropylene glycol with 3 wt % sulfuric acid
[8] = propylene glycol, no acids added

SMILES: CN1CCN(C)CCN(C)CC1.CN1CCN(C)CCN(C)CC1.O=[N+]([O-])[O-].O=[N+]([O-])[O-].[Mn+4].[Mn+4].[O-2].[O-2].[O-2] [MnTACN-NO3, [Mn^IV2(μ-O)3(Me3-TACN)2](NO3)2]
- solubility and stability in solvent [2, 5]: good solubility and stability
- solubility and stability in solvent ([2]; Dowanol PM with sulfuric acid): good solubility and stability
- solubility and stability in solvent ([2]; Dowanol PM without acid): good solubility and stability
- solubility and stability in solvent ([2]; dipropylene glycol): good solubility and stability
- solubility and stability in solvent [2, 6]: good solubility and stability
- solubility and stability in solvent [2, 7]: good solubility and stability
- solubility and stability in solvent [2, 8]: good solubility and stability
- solubility in water [3]: greater than 283 g/L
- solubility in water ([3]; equated from g/L): > 28.3 wt %

SMILES: CN1CCN(C)CCN(C)CC1.CN1CCN(C)CCN(C)CC1.F[P-](F)(F)(F)(F)F.F[P-](F)(F)(F)(F)F.O.[Mn+4].[Mn+4].[O-2].[O-2].[O-2] [MnTACN-PF6, [Mn^IV2(μ-O)3(Me3-TACN)2](PF6)2*H2O, reference compound]
- solubility in solvent ([2]; 1,3-propanol-diol): Poor solubility
- solubility in solvent ([2]; 1-hexanol): Poor solubility
- solubility in solvent ([2]; 1-propanol): Poor solubility
- solubility in solvent ([2]; 2-ethyl-1-hexanol): Poor solubility
- solubility in solvent ([2]; 2-propanol): Poor solubility
- solubility in solvent ([2]; Dowanol DPM): Poor solubility
- solubility and stability in solvent ([2]; Dowanol PM without acid): Poor solubility
- solubility in solvent ([2]; acetonitrile): dissolved very well
- solubility and stability in solvent ([2]; dipropylene glycol): Poor solubility
- solubility in solvent ([2]; ethanol (abs)): Poor solubility
- solubility in solvent ([2]; ethyl acetate): Poor solubility
- solubility in solvent ([2]; ethylene glycol, after heating): dissolved
- solubility in solvent ([2]; formic acid): well soluble
- stability (appearance) in solution ([2]; formic acid): turned brown
- solubility in water [3]: 10.8 g/L

SMILES: CN1CCN(C)CCN(C)CC1.CN1CCN(C)CCN(C)CC1.O.O.O.O.O=S(=O)([O-])[O-].[Mn+4].[Mn+4].[O-2].[O-2].[O-2] [MnTACN-SO4, [Mn^IV2(μ-O)3(Me3-TACN)2]SO4*4H2O]
- solubility and stability in solvent [2, 5]: good solubility and stability
- solubility and stability in solvent ([2]; Dowanol PM with nitric acid): poor solubility
- solubility and stability in solvent ([2]; Dowanol PM with sulfuric acid): poor solubility
- solubility and stability in solvent ([2]; Dowanol PM without acid): good solubility and stability
- solubility and stability in solvent ([2]; dipropylene glycol): good solubility and stability
- solubility and stability in solvent ([2]; dipropylene glycol with 3 wt % citric acid): good solubility and stability
- solubility and stability in solvent [2, 6]: precipitation
- solubility and stability in solvent [2, 7]: precipitation
- solubility and stability in solvent [2, 8]: good solubility and stability
- solubility in water [3]: greater than 735 g/L
- solubility in water ([3]; equated from g/L): > 73.5 wt %
- tea-stain cleaning on tea cups ([4]; 14 g tablet + 82 mg dipropylene glycol containing 1.64 mg dissolved catalyst (Exp low)): 80 points
- tea-stain cleaning on tea cups ([4]; 14 g tablet + 100 mg dipropylene glycol containing 2 mg dissolved catalyst (Exp high)): 85 points

SMILES: CN1CCN(C)CCN(C)CC1.CN1CCN(C)CCN(C)CC1.Cc1ccc(S(=O)(=O)[O-])cc1.Cc1ccc(S(=O)(=O)[O-])cc1.[Mn+4].[Mn+4].[O-2].[O-2].[O-2] [MnTACN-Ts2, [Mn^IV2(μ-O)3(Me3-TACN)2](tosylate)2]
- solubility and stability in solvent ([2]; dipropylene glycol): dissolved
- solubility in water [3]: greater than 100 g/L
- solubility in water ([3]; equated from g/L): > 10 wt %

Results, then the compound that gave them:

- stability of PVOH pouches containing the solvent ([1]; solvent without acid, 1 mL): good stability
SMILES: COC(C)COC(C)CO (stereo not drawn) [Dowanol DPM, dipropylene glycol methyl ether]

- stability of PVOH pouches containing the solvent ([1]; solvent with 3 wt % H2SO4): not stable
- stability of PVOH pouches containing the solvent ([1]; solvent with 3 wt % HNO3): good stability
- stability of PVOH pouches containing the solvent ([1]; solvent with 3 wt % citric acid): not stable
- stability of PVOH pouches containing the solvent ([1]; solvent without acid, 1 mL): not stable
SMILES: COCC(C)O (stereo not drawn) [Dowanol PM, propylene glycol methyl ether]

- solubility in solvent ([2]; dipropylene glycol, had to be heated): dissolved
- solubility in water [3]: greater than 182 g/L
- solubility in water ([3]; equated from g/L): > 18.2 wt %
SMILES: CN1CCN(C)CCN(C)CC1.CN1CCN(C)CCN(C)CC1.O.O.O.[Cl-].[Cl-].[Mn+4].[Mn+4].[O-2].[O-2].[O-2] [MnTACN-Cl2, [Mn^IV2(μ-O)3(Me3-TACN)2]Cl2*3H2O]

- solubility and stability in solvent ([2]; dipropylene glycol): dissolved well
- stability upon storage in solution ([2]; dipropylene glycol, room temperature for at least 7 months): very high stability
- solubility in water [3]: greater than 1000 g/L
SMILES: CN1CCN(C)CCN(C)CC1.CN1CCN(C)CCN(C)CC1.O.O.O.O.O=C([O-])c1ccccc1.O=C([O-])c1ccccc1.[Mn+4].[Mn+4].[O-2].[O-2].[O-2] [MnTACN-benzoate, [Mn^IV2(μ-O)3(Me3-TACN)2](benzoate)2*4H2O]
